Assay: xn = mol fraction of the nth substance listed

Nc1cccc2ccccc12 + CCO
viscosity [mPa·s], 101 kPa
Details	x1 = 0.0225	x1 = 0.04399	x1 = 0.08427	x1 = 0.1213	x1 = 0.1554	x1 = 0.187	x1 = 0.2163
293.15 K	1.348	1.454	1.7	1.987	2.308	2.667	3.025
303.15 K	1.094	1.176	1.362	1.56	1.786	2.029	2.27
313.15 K	0.903	0.966	1.104	1.251	1.41	1.587	1.759
323.15 K	0.745	0.791	0.899	1.006	1.121	1.254	1.377

CCCOCCO + CN1CCCC1=O
298.15 K, 101 kPa
Details	viscosity [mPa·s]
x1 = 0.0057	1.693
x1 = 0.0142	1.702
x1 = 0.0273	1.719
x1 = 0.0609	1.756
x1 = 0.1004	1.803
x1 = 0.1386	1.847
x1 = 0.1786	1.891
x1 = 0.2186	1.94
x1 = 0.2578	1.996
x1 = 0.2966	2.038
x1 = 0.3343	2.078
x1 = 0.3852	2.132
x1 = 0.4436	2.186
x1 = 0.5011	2.244
x1 = 0.5422	2.28
x1 = 0.6093	2.311
x1 = 0.6638	2.343
x1 = 0.7673	2.355
x1 = 0.8387	2.365
x1 = 0.8702	2.362
x1 = 0.9445	2.359
x1 = 0.976	2.354

CCCCn1cc[n+](C)c1.[Cl-] + CN(C)C=O
101 kPa
Details	viscosity [mPa·s]
293.15 K, x2 = 0.5025	76.7
293.15 K, x2 = 0.9	3.41
298.15 K, x2 = 0.501	64.4
303.15 K, x2 = 0.7005	9.55
308.15 K, x1 = 0.1056	1.665
308.15 K, x1 = 0.1399	2.135
308.15 K, x2 = 0.7	7.76

CCCOCCO + CN(C)C=O
298.15 K, 101 kPa
Details	viscosity [mPa·s]
x1 = 0.0076	0.821
x1 = 0.0172	0.834
x1 = 0.029	0.846
x1 = 0.0502	0.874
x1 = 0.1029	0.948
x1 = 0.1416	0.998
x1 = 0.1927	1.07
x1 = 0.264	1.18
x1 = 0.2944	1.223
x1 = 0.3428	1.289
x1 = 0.3521	1.305
x1 = 0.4414	1.458
x1 = 0.5181	1.582
x1 = 0.5987	1.726
x1 = 0.6457	1.809
x1 = 0.6982	1.895
x1 = 0.7555	1.989
x1 = 0.8533	2.164
x1 = 0.9398	2.308
x1 = 0.9729	2.345

CCCCn1cc[n+](C)c1.[Cl-] + CO
101 kPa
Details	viscosity [mPa·s]
293.15 K, x2 = 0.5001	65.2
293.15 K, x2 = 0.7002	8.41
298.15 K, x2 = 0.7015	7.51
308.15 K, x2 = 0.7001	6.61

CCCOCCO + CO
298.15 K, 101.33 kPa
Details	viscosity [mPa·s]
x1 = 0.0024	0.553
x1 = 0.0177	0.581
x1 = 0.041	0.62
x1 = 0.0504	0.644
x1 = 0.0697	0.673
x1 = 0.0903	0.729
x1 = 0.1252	0.801
x1 = 0.159	0.865
x1 = 0.1826	0.914
x1 = 0.2208	0.989
x1 = 0.2613	1.084
x1 = 0.2874	1.149
x1 = 0.3049	1.199
x1 = 0.341	1.284
x1 = 0.3895	1.394
x1 = 0.4426	1.499
x1 = 0.4816	1.577
x1 = 0.5329	1.68
x1 = 0.5596	1.737
x1 = 0.6366	1.878
x1 = 0.6677	1.927
x1 = 0.7153	2.014
x1 = 0.7701	2.115
x1 = 0.8053	2.16
x1 = 0.8437	2.194
x1 = 0.8812	2.248
x1 = 0.9415	2.323
x2 = 0.0116	2.347

N#Cc1ccccc1 + CO
Details	viscosity [mPa·s]
303 K, 100 kPa, x1 = 0.0991	0.6312
303 K, 100 kPa, x1 = 0.2405	0.7232
303 K, 100 kPa, x1 = 0.3585	0.7886
303 K, 100 kPa, x1 = 0.4974	0.8399
303 K, 100 kPa, x1 = 0.6272	0.9121
303 K, 100 kPa, x1 = 0.7094	0.9522
303 K, 100 kPa, x1 = 0.8023	0.9912
303 K, 100 kPa, x1 = 0.897	1.035
303.15 K, 101.33 kPa, x1 = 0.0854	0.562
303.15 K, 101.33 kPa, x1 = 0.1569	0.603
303.15 K, 101.33 kPa, x1 = 0.2408	0.652
303.15 K, 101.33 kPa, x1 = 0.4349	0.763
303.15 K, 101.33 kPa, x1 = 0.5335	0.82
303.15 K, 101.33 kPa, x1 = 0.6304	0.875
303.15 K, 101.33 kPa, x1 = 0.7155	0.926
303.15 K, 101.33 kPa, x1 = 0.8439	1.011
303.15 K, 101.33 kPa, x1 = 0.9059	1.061
308 K, 100 kPa, x1 = 0.0991	0.5712
308 K, 100 kPa, x1 = 0.2405	0.6523
308 K, 100 kPa, x1 = 0.3585	0.7123
308 K, 100 kPa, x1 = 0.4974	0.7652
308 K, 100 kPa, x1 = 0.6272	0.8012
308 K, 100 kPa, x1 = 0.7094	0.8307
308 K, 100 kPa, x1 = 0.8023	0.8716
308 K, 100 kPa, x1 = 0.897	0.9146
308.15 K, 101.33 kPa, x1 = 0.0854	0.525
308.15 K, 101.33 kPa, x1 = 0.1569	0.562
308.15 K, 101.33 kPa, x1 = 0.2408	0.608
308.15 K, 101.33 kPa, x1 = 0.4349	0.709
308.15 K, 101.33 kPa, x1 = 0.5335	0.761
308.15 K, 101.33 kPa, x1 = 0.6304	0.811
308.15 K, 101.33 kPa, x1 = 0.7155	0.859
308.15 K, 101.33 kPa, x1 = 0.8439	0.938
308.15 K, 101.33 kPa, x1 = 0.9059	0.985
313 K, 100 kPa, x1 = 0.0991	0.5056
313 K, 100 kPa, x1 = 0.2405	0.5595
313 K, 100 kPa, x1 = 0.3585	0.6235
313 K, 100 kPa, x1 = 0.4974	0.6856
313 K, 100 kPa, x1 = 0.6272	0.7325
313 K, 100 kPa, x1 = 0.7094	0.7731
313 K, 100 kPa, x1 = 0.8023	0.8134
313 K, 100 kPa, x1 = 0.897	0.8658

N#Cc1ccccc1 + COC(C)(C)C
viscosity [mPa·s], 101.33 kPa
Details	x2 = 0.1048	x2 = 0.2024	x2 = 0.3015	x2 = 0.3969	x2 = 0.4912	x2 = 0.6055	x2 = 0.7115	x2 = 0.7995	x2 = 0.905
293.15 K	1.277	1.18	1.081	0.9863	0.8924	0.7787	0.6732	0.5856	0.4806
298.15 K	1.185	1.096	1.006	0.9189	0.8329	0.7286	0.6319	0.5516	0.4554

N#Cc1ccccc1 + COc1ccccc1
viscosity [mPa·s], 101.33 kPa
Details	x2 = 0.0923	x2 = 0.1792	x2 = 0.2764	x2 = 0.3719	x2 = 0.4735	x2 = 0.6068	x2 = 0.7036	x2 = 0.808	x2 = 0.8989
293.15 K	1.315	1.3	1.27	1.235	1.191	1.164	1.149	1.134	1.119
298.15 K	1.226	1.201	1.181	1.142	1.122	1.088	1.079	1.056	1.036
